Consider three molecules from US20240292837A1, “CHROMONE DERIVATIVES AS ATTRACTANTS AND REPELLENTS OF BLOOD-SUCKING, BITING INVERTEBRATES” (CENTRE NATIONAL DE LA RECHERCHE SCIENTIFIQUE, priority 2021, published 2024).

The subject of assay [1] is Aedes albopictus. Put plainly: Evaluation of the combination 4-hydroxycoumarin / 7-nonyloxychromone (KI vs amount deposited, FIG. 1). It is filed as in vivo. The text has this:
Said figure represents the IK (in %) as a function of the amount deposited (in mg).
It is possible to combine a chromone compound with other compounds of different structure.

For assay [2], the system named is Aedes albopictus. The assay can be described thus: Evaluation of the repellent and/or attractant effect in a tunnel olfactometer. To be noted: for Control (±SD), mean number of mosquitoes in the control zone / Treated (±SD), mean number of mosquitoes in the treated zone / Treated/Product (±SD), mean number of mosquitoes in the treated zone: 15 females; for repellent or attractant effect (in words): over the doses tested. It is filed as in vivo. From the text:
The tunnel olfactometer is a 1 m long glass parallelepiped with a 5×5 cm side. The tube is equipped with 3 openings: two on each side, one for feeding in the paper impregnated with the product to be tested, and the other for the paper containing a control. The opening in the middle is for feeding in mosquitoes. Both ends of the tube are closed by covers.
The olfactometer is divided into three compartments or zones: • a neutral zone in the middle; • a test or treated area which is on the side of depositing the product; and • a control area which is located on the side of depositing the control.
For each test, 15 Aedes albopictus females (aged 5 to 12 days) are fed into the neutral zone of the tunnel olfactometer. Mosquitoes are kept for 10 minutes for a time of adaptation. Papers impregnated and dried with a solution of product in ethanol and pure ethanol as a reference are fed in, then the barriers are opened to allow mosquitoes to circulate freely inside the tube. Three test repetitions were carried out for each product. A repetition lasts 20 minutes and the results observed were recorded every 5 minutes.
The values measured are the activity index and the repulsion index. The activity index (Al) describes the percentage of mosquitoes in the control zone (T) and in the treated zone (P) with respect to the total number of mosquitoes tested. Said value should be greater than 30% for the test to be considered significant.
The repulsion index (RI) represents the percentage of the difference in the number of mosquitoes in the control part and in the treated part divided by the sum of the two values. A negative value of the parameter (RI) indicates an attractant activity (kairomone index. KI) of the product tested.
[formula] • Al: Activity index • RI: Repulsion index • T: Number of mosquitoes in the control area • P: Number of mosquitoes in the treated area

[3] abbreviates: dose 5 mg/ml, negative = attractant.
Where [4] appears, read: dose 10 mg/ml, negative = attractant.
Setting [5] is: dose 30 mg/ml, negative = attractant.

For `CCCCCCCC(C)Oc1ccc2c(=O)ccoc2c1` (racemic) [7-sec-nonyloxychromone], the “change of attractant effect with dose (in words)” value in the assay on Aedes albopictus [1] (from the 10 mg dose onwards) is on record as “significant decrease”. Further, in the assay on Aedes albopictus [2] (5 mg deposition, negative = attractant), the “Repulsion index 5 mg deposition” value is recorded as −65.8%. Also, the “Repulsion index 10 mg deposition” value in the assay with Aedes albopictus [2] (10 mg deposition, negative = attractant) is recorded as −63.7%. For the same molecule, in the assay with Aedes albopictus [2] (30 mg deposition, negative = attractant), the “Repulsion index 30 mg deposition” value is recorded as −27.1%. Further, the “AI (%) activity index” value with Aedes albopictus [2] (dose 0.1 mg/ml) amounted to 91.1%; with Aedes albopictus [2] (dose 2 mg/ml), 91.1%; with Aedes albopictus [2] (dose 5 mg/ml) it was 83.9%; with Aedes albopictus [2] (dose 10 mg/ml), 91.7%; in the assay with Aedes albopictus [2] (dose 30 mg/ml), 88.3%. The “Control (±SD), mean number of mosquitoes in the control zone” value with Aedes albopictus [2] (dose 0.1 mg/ml in treated zone) was determined as 2.5 ± 0.2; in the assay with Aedes albopictus [2] (dose 2 mg/ml in treated zone), 1.4 ± 0.4; in the assay with Aedes albopictus [2] (dose 5 mg/ml in treated zone), 2.2 ± 0.3; in the assay with Aedes albopictus [2] (dose 10 mg/ml in treated zone), 2.5 ± 0.5; in the assay on Aedes albopictus [2] (dose 30 mg/ml in treated zone), 4.8 ± 0.4. Moreover, the figures for the “Treated (±SD), mean number of mosquitoes in the treated zone” value in the assay with Aedes albopictus [2] (dose 0.1 mg/ml) and in the assay on Aedes albopictus [2] (dose 2 mg/ml) were 11.2 ± 0.6 and 12.3 ± 0.0, respectively. Also, the “KI (%) kairomone index” value with Aedes albopictus [2] (dose 0.1 mg/ml, negative = attractant) is −63.5%; with Aedes albopictus [2] (dose 2 mg/ml, negative = attractant), −79.8%; in the assay on Aedes albopictus [2] (setting [3]) it was −65.8%; in the assay on Aedes albopictus [2] (setting [4]), −63.6%; in the assay with Aedes albopictus [2] (setting [5]), −27.1%. Moreover, the “Treated/Product (±SD), mean number of mosquitoes in the treated zone” value with Aedes albopictus [2] (dose 5 mg/ml) was determined as 10.4 ± 0.1; in the assay on Aedes albopictus [2] (dose 10 mg/ml) it was 11.3 ± 0.0; in the assay with Aedes albopictus [2] (dose 30 mg/ml) it was 8.4 ± 0.2. Further, the “maximum value of KI” value in the assay with Aedes albopictus [2] (dose of 2 mg/ml, given as magnitude) is ~80%. The “repellent or attractant effect (in words)” value in the assay on Aedes albopictus [2] is recorded as “stays attractant”. In the assay with Aedes albopictus [2] (up to 10 mg/ml, given as magnitude), the “attractant activity (KI)” value is “above 65%”.
As for `O=c1cc(O)c2ccccc2o1` [4-hydroxycoumarin], the increase in attraction in the assay with Aedes albopictus [1] (higher doses (10 and 30 mg) vs low doses) is 10%. The “kairomone index KI” value in the assay with Aedes albopictus [1] (low dose (or quantity)) was ~40%.
With R-(−)-sec-pentoxychromone, the “AI (%) activity index” value is listed as 92.2% in the assay with Aedes albopictus [2] (dose 1 mg/ml), 86.7% in the assay with Aedes albopictus [2] (dose 5 mg/ml), 81.1% with Aedes albopictus [2] (dose 10 mg/ml) and 90% in the assay with Aedes albopictus [2] (dose 30 mg/ml). Besides, the “Control (±SD), mean number of mosquitoes in the control zone” value is reported as 5.3 ± 0.3 in the assay with Aedes albopictus [2] (dose 1 mg/ml in treated zone), 2.2 ± 0.4 in the assay on Aedes albopictus [2] (dose 5 mg/ml in treated zone), 3.6 ± 0.4 with Aedes albopictus [2] (dose 10 mg/ml in treated zone) and 6.6 ± 0.4 in the assay with Aedes albopictus [2] (dose 30 mg/ml in treated zone). Further, the “Treated (±SD), mean number of mosquitoes in the treated zone” value with Aedes albopictus [2] (dose 1 mg/ml) worked out at 8.6 ± 0.2. Further, the “KI (%) kairomone index” value at Aedes albopictus [2] (dose 1 mg/ml, negative = attractant) is on record as −24.3%; at Aedes albopictus [2] (setting [3]), −66.6%; at Aedes albopictus [2] (setting [4]), −47.1%; at Aedes albopictus [2] (setting [5]), −2.8%. In addition, the “Treated/Product (±SD), mean number of mosquitoes in the treated zone” value is 10.8 ± 0.6 in the assay with Aedes albopictus [2] (dose 5 mg/ml), 8.6 ± 0.1 with Aedes albopictus [2] (dose 10 mg/ml) and 6.9 ± 0.3 in the assay with Aedes albopictus [2] (dose 30 mg/ml). Also, the “repellent or attractant effect (in words)” value with Aedes albopictus [2] is listed as “attractant”.
